Laboratory results reported in US7247309B2, “Coccidiosis vaccines” (Intervet International B.V., priority 1999, dated 2007).

System: Eimeria strains according to the invention
Assay: Tolerance/sensitivity of the strains to anticoccidial drugs (infection of chickens with the strains and administration of drug)
Assay type: in vivo
Protocol: all four strains are tolerant to two commonly used anticoccidial ionophores: monensin (110 ppm) and salinomycin (60 ppm). The concentrations tested are commonly used concentrations. Specific tolerance levels were determined by infection of chickens with the strains and administration of ionophores.
These four strains are tolerant for 110 ppm of monensin and for 60 ppm of salinomycin, sensitive for 1 ppm of diclazuril (see FIG. 1) and the proliferative capacity of the four strains is decreased to 76000 (see Table 1b).

N#CC(c1ccc(Cl)cc1)c1c(Cl)cc(-n2ncc(=O)[nH]c2=O)cc1Cl (stereo not drawn) [diclazuril]
sensitivity of the strains to diclazuril (diclazuril 1 ppm): fully sensitive

CC[C@@H](C(=O)[C@@H](C)[C@@H](O)[C@H](C)[C@@H]1O[C@@H]([C@@H](CC)C(=O)O)CC[C@@H]1C)[C@H]1O[C@]2(C=C[C@@H](O)[C@]3(CC[C@@](C)([C@H]4CC[C@](O)(CC)[C@H](C)O4)O3)O2)[C@H](C)C[C@@H]1C [salinomycin]
tolerance of the strains to salinomycin (salinomycin 60 ppm, chickens infected with the strains): tolerant

CC[C@@]1([C@@H]2O[C@@H]([C@H]3O[C@@](O)(CO)[C@H](C)C[C@@H]3C)C[C@@H]2C)CC[C@H]([C@]2(C)CC[C@]3(C[C@H](O)[C@@H](C)[C@@H]([C@@H](C)[C@@H](OC)[C@H](C)C(=O)O)O3)O2)O1 [monensin]
tolerance of the strains to monensin (monensin 110 ppm, chickens infected with the strains): tolerant
